According to patent US5770563A, “Heparin- and sulfatide binding peptides from the type I repeats of human thrombospondin and conjugates thereof” (The United States of America as represented by the …, priority 1995, dated 1998):
Where two headings read alike, the source gives them in different places. Square brackets hold non-standard residues; d marks the D form. Peptide text beside a SMILES is read from it. Mpa = O=C(O)CCS

Tests used:
[1] = biological target: thrombospondin binding to sulfatide; assay: Inhibition of 125I-thrombospondin binding to sulfatide; design: species or system human; details: Table 1, free peptide
Method: (§1) The peptides were tested as inhibitors of laminin, thrombospondin or apolipoprotein E binding to a heparin-bovine serum albumen conjugate or to a sulfatide in a solid phase assay essentially following the procedure described in Zabrenetzky et al., Cancer Res., Vol. 50, pages 5937-5942 (1990). Sulfatide (0.2 μg/well for thrombospondin binding, 0.6 μg/well for laminin binding) was immobilized in a mixture of 50 ng of phosphatidyl choline, and 30 ng of cholesterol on polyvinyl chloride microtiter plates. Heparin-BSA (0.2 μg/well) was absorbed onto polyvinyl chloride microtiter plate wells by incubation of 50 μl of Dulbecco's PBS for 2 h at 37°. The wells were emptied and filled with 50 mM tris, pH 7.8 containing 150 mM NaCl, 1 mM CaCl2, 0.025% NaN3, and 1% BSA. After 30 minutes, the wells were emptied and 30 μl of various concentrations of potential inhibitory peptides diluted in the same buffer or buffer alone and 30 μl of ^125 I-labeled laminin, thrombospondin or apolipoprotein E (0.2 μg/ml) were added to each well. After 3 hours at 4°, the wells were washed 6 times with 0.15M NaCl, cut from the plate and the bound radioactivity counted. FIGS. 1A-B and 2A-B show the level of thrombospondin binding to sulfatide and heparin-BSA, respectively, in the presence of increasing concetrations of the peptides listed. FIGS. 3 and 4A-B show the level of laminin binding to sulfatide and heparin-BSA, respectively, in the presence of increasing concentrations of the listed peptides.

[2] = biological target: laminin binding to heparin; assay: Inhibition of 125I-laminin binding to heparin-BSA; design: species or system mouse; details: for IC50: Table 2, free peptide
Method: as §1

[3] = biological target: thrombospondin binding to heparin; assay: Inhibition of 125I-thrombospondin binding to immobilized heparin-BSA; design: species or system human; details: for inhibition of thrombospondin binding to heparin, in words: free peptide
Method: as §1
Microtiter plate wells were coated with heparin-BSA. Heparin-BSA (0.2 μg/well) was adsorbed by incubation in 50 μl of Dulbecco's PBS for 2 h at 370. The wells were emptied, filled with tris-BSA, and incubated for 30 to 60 minutes. The buffer was removed, and labelled thrombospondin was added and incubated in the wells for 3 h at 40. The wells were emptied and washed 4 times with saline. The bottoms of the wells were cut from the plate and counted to quantify thrombospondin binding. Inhibition of thrombospondin binding was determined using peptides diluted in 30 μl of 50 mM tris buffer, pH 7.8, containing 110 mM NaCl, 1 mM CaCl2, 0.025% NaN3, and 1% BSA or buffer alone and 30 μl of ^125 I-labeled TSP (0.2 μg/ml).

[4] = biological target: apolipoprotein E binding to heparin; assay: Inhibition of 125I-apolipoprotein E binding to heparin-BSA; details: Table 2, free peptide; read-out: IC50 Apo E Binding to Heparin
Method: as §1

[5] = biological target: laminin binding to sulfatide; assay: Inhibition of 125I-laminin binding to sulfatide; design: species or system mouse; details: Table 2, free peptide
Method: as §1

[6] = biological target: basic fibroblast growth factor (FGF-2) binding to heparin; assay: Inhibition of 125I-bFGF binding to heparin-BSA conjugate
Method: Binding of ^125 I-bFGF to heparin was determined using an immobilized heparin-BSA conjugate as previously described (Guo, et al. (1992) Proc. Nat'l Acad. Sci. 89:3040-3044). ^125 I-bFGF, prepared as described by Neufeld, et al, (1985), J. Biol. Chem. 260:13860-13868, was added described above, and incubated for 2 hours at 25° C. Bound radioactivity was determined after washing and cutting the wells from the plate. FIGS. 40A, B and C show the inhibition of ^125 I-bFGF binding to heparin by a number of TSP peptide analogs.

[7] = test system: MDA MB435 breast carcinoma cells; assay: MDA MB435 human breast carcinoma cell proliferation; assay type: cell-based
Method: Human breast carcinoma cells MDA MB435 (American Type Culture Collection) were grown in RPMI 1640 medium containing 10% fetal calf serum. Proliferation was determined as described in FIG. 18 and 44A, B and C.
Human breast carcinoma cells MDA MB435 (American Type Culture Collection) were grown in RPMI 1640 medium containing 10% fetal calf serum. Proliferation was determined in the presence of 0.5% fetal calf serum and bFGF as described in FIG. 19.

AIDS-KS cells = assay: AIDS-KS cell chemotaxis, modified Boyden chamber; assay type: cell-based, human; details: added in the lower well
Method: Directed migration (chemotaxis) and general migration (chemokinesis) of AIDS-KS cells in culture was measured by the modified Boyden chamber assay using fibronectin coated […] Nucleopore filters as previously described. In brief, the AIDS-KS cells, were trypsinized then resuspended in RPMI 1640 containing […] (GIBCO-BRL) and 20% activated lymphocyte conditioned medium. The trypsinized cells were allowed to recover in suspension for 2 hours, then the cells were recovered by centrifugation and resuspended in RPMI 1640 containing 0.1% BS at 5×10^5 cells/ml prior to adding 100 μl to the upper wells in the chemotaxis chamber. Migration to BSA (0.1%) and OSM was performed in the presence of the indicated concentrations of TSP, and TSP peptide-FICOLL conjugates. After 3 hours incubation at 37° C. filters were stained with Diff Quick (Merz-Dade, Dudingen, Switzerland), and the migrated cells in ten high-power fields were counted. The values are triplicate determinations and the bars indicate standard deviations, n=3.

[8] = Table 1, free peptide, read-out: IC50 Heparin Binding, inhibition of 125I-thrombospondin binding
[9] = retro-inverso peptides, read-out: IC50 for Inhibition of Binding
[10] = retro-inverso peptides, free, read-out: IC50 Inhibitory Activity, Free Peptide

Row | Molecule | IC50 [1] [µM] | IC50 [2] [µM] | IC50 [3, 8] [µM] | IC50 [4] [µM] | IC50 [5] [µM] | IC50 [6, 9] [µM] | IC50 [3, 10] [µM] | also measured
1 | C[C@H](NC(=O)[C@H](Cc1c[nH]cn1)NC(=O)[C@@H](N)CO)C(=O)N[C@@H](CO)C(=O)N1CCC[C@H]1C(=O)N[C@@H](C)C(=O)N[C@@H](CO)C(=O)N[C@@H](CO)C(=O)O [Peptide 244, SHASPASS] (H-SHASPASS-OH) | > 200 | > 200 | > 200 | > 200 | – | – | – | fold less active than the natural sequence SHWSPWSS ([3]; Trp replaced by Ala): more than 100 fold
2 | CC(C)[C@H](NC(=O)[C@H](CO)NC(=O)[C@H](CS)NC(=O)[C@H](CO)NC(=O)[C@H](CO)NC(=O)[C@H](Cc1c[nH]c2ccccc12)NC(=O)[C@@H]1CCCN1C(=O)[C@H](CO)NC(=O)[C@@H](N)Cc1c[nH]c2ccccc12)C(=O)N[C@H](C(=O)O)[C@@H](C)O [Peptide 241, WSPWSSCSVT] (H-WSPWSSCSVT-OH) | 34 | 34 | 35 | 180 | 50 | – | – | –
3 | CC(=O)N[C@H](CS)C(=O)N[C@H](CO)C(=O)N[C@H](CO)C(=O)N[C@H](C)C(=O)N1CCC[C@@H]1C(=O)N[C@H](CO)C(=O)N[C@H](C)C(=O)N[C@H](Cc1c[nH]cn1)C(=O)N[C@H](CO)C(=O)N[C@H](C)C(=O)NCC(=O)NCC(=O)N[C@H](CC(=O)O)C(=O)N[C@H](CCC(N)=O)C(=O)N[C@H](CCCCN)C(=O)N[C@H](Cc1ccccc1)C(=O)N[C@H](CCCNC(=N)N)C(=O)N[C@H](CCCCN)C(N)=O [Peptide 475, ri-amKRFKQDGGASHASPASSCac] (Ac-[dC][dS][dS][dA][dP][dS][dA][dH][dS][dA]GG[dD][dQ][dK][dF][dR][dK]-NH2) | – | – | – | – | – | > 20 | 10 | –
4 | NCC(=O)NCC(=O)N[C@@H](Cc1c[nH]c2ccccc12)C(=O)N[C@@H](CO)C(=O)N[C@@H](Cc1c[nH]cn1)C(=O)N[C@@H](Cc1c[nH]c2ccccc12)C(=O)N[C@@H](CO)C(=O)N1CCC[C@H]1C(=O)N[C@@H](Cc1c[nH]c2ccccc12)C(=O)N[C@@H](CO)C(=O)N[C@@H](CO)C(=O)O [Peptide 256, GGWSHWSPWSS] (H-GGWSHWSPWSS-OH) | – | – | – | – | – | – | – | IC50 ([6]; L-forward peptides, read-out: IC50 Inhibitory Activity): > 40 µM; inhibition of laminin binding, in words ([2]; free peptide): increased activity; inhibition of thrombospondin binding to heparin, in words [3]: decreased activity
5 | KRFKQDGGWSHWSPWSSC [Peptide 364] | – | – | – | – | – | – | – | inhibition of MDA435 proliferation, in words ([7]; FICOLL conjugate): strongly inhibited proliferation; fold less active than native thrombospondin ([7]; from dose response curves, 0.5% fetal calf serum and bFGF): approximately 10 fold; activity relative to native thrombospondin on a subunit molar basis ([7]; subunit molar basis): about three-fold less active
6 | N[C@@H](Cc1c[nH]c2ccccc12)C(=O)N[C@@H](CO)C(=O)N1CCC[C@H]1C(=O)N[C@@H](Cc1c[nH]c2ccccc12)C(=O)N[C@@H](CO)C(=O)N[C@@H](CO)C(=O)N[C@@H](CS)C(=O)N[C@@H](CO)C(=O)O [Peptide 240, WSPWSSCS] (H-WSPWSSCS-OH) | 100 | 100 | 66 | 150 | 100 | – | – | –
7 | oncostatin M: growth factor, chemoattractant for AIDS-KS cells (protein, UniProt P13725 26-221, looked up) Oncostatin-M: AAIGSCSKEYRVLLGQLQKQTDLMQDTSRLLDPYIRIQGLDVPKLREHCRERPGAFPSEETLRGLGRRGFLQTLNATLGCVLHRLADLEQRLPKAQDLERSGLNIEDLEKLQMARPNILGLRNNIYCMAQLLDNSDTAEPTKAGRGASQPPTPTPASDAFQRKLEGCRFLHGYHRFMHSVGRVFSKWGESPNRSRR | – | – | – | – | – | – | – | stimulation of AIDS-KS cell motility (AIDS-KS cells): simulated motility

The next lines start with results.

Row | IC50 [1] [µM] | IC50 [2] [µM] | IC50 [3, 8] [µM] | IC50 [4] [µM] | IC50 [5] [µM] | IC50 [6, 9] [µM] | IC50 [3, 10] [µM] | Molecule | also measured
8 | 27 | 15 | 8.5 | 52 | 35 | – | – | CC[C@H](C)[C@H](NC(=O)[C@H](CC(=O)O)NC(=O)[C@H](Cc1c[nH]c2ccccc12)NC(=O)[C@@H]1CCCN1C(=O)[C@H](CO)NC(=O)[C@H](Cc1c[nH]c2ccccc12)NC(=O)[C@@H]1CCCN1C(=O)CN)C(=O)N[C@@H](CS)C(=O)N[C@@H](CO)C(=O)N[C@H](C(=O)N[C@H](C(=O)O)[C@@H](C)O)C(C)C [Peptide 186, GPWSPWDICSVT] (H-GPWSPWDICSVT-OH) | –
9 | 10 | 11 | 5.2 | 250 | 12 | – | – | N[C@@H](CO)C(=O)N[C@@H](Cc1c[nH]cn1)C(=O)N[C@@H](Cc1c[nH]c2ccccc12)C(=O)N[C@@H](CO)C(=O)N1CCC[C@H]1C(=O)N[C@@H](Cc1c[nH]c2ccccc12)C(=O)N[C@@H](CO)C(=O)N[C@@H](CO)C(=O)O [Peptide 239, SHWSPWSS] (H-SHWSPWSS-OH) | inhibition of thrombospondin binding to heparin, in words [3]: more active than the intact dodecapeptide
10 | – | – | – | – | – | 1.9 | 0.15 | CC(=O)N[C@H](CS)C(=O)N[C@H](CO)C(=O)N[C@H](CO)C(=O)N[C@H](Cc1c[nH]c2ccccc12)C(=O)N1CCC[C@@H]1C(=O)N[C@H](CO)C(=O)N[C@H](Cc1c[nH]c2ccccc12)C(=O)N[C@H](Cc1c[nH]cn1)C(=O)N[C@H](CO)C(=O)N[C@H](Cc1c[nH]c2ccccc12)C(=O)NCC(=O)NCC(=O)N[C@H](C)C(=O)N[C@H](C)C(=O)N[C@H](CCCCN)C(=O)N[C@H](C)C(=O)N[C@H](CCCNC(=N)N)C(=O)N[C@H](CCCCN)C(N)=O [Peptide 473, ri-amKRAKAAGGWSHWSPWSSCac] (Ac-[dC][dS][dS][dW][dP][dS][dW][dH][dS][dW]GG[dA][dA][dK][dA][dR][dK]-NH2) | –
11 | – | – | – | – | – | 0.95 | 0.1 | CC(=O)N[C@H](CS)C(=O)N[C@H](CO)C(=O)N[C@H](CO)C(=O)N[C@H](Cc1c[nH]c2ccccc12)C(=O)N1CCC[C@@H]1C(=O)N[C@H](CO)C(=O)N[C@H](Cc1c[nH]c2ccccc12)C(=O)N[C@H](Cc1c[nH]cn1)C(=O)N[C@H](CO)C(=O)N[C@H](Cc1c[nH]c2ccccc12)C(=O)NCC(=O)NCC(=O)N[C@H](CC(=O)O)C(=O)N[C@H](CCC(N)=O)C(=O)N[C@H](CCCCN)C(=O)N[C@H](C)C(=O)N[C@H](CCCNC(=N)N)C(=O)N[C@H](CCCCN)C(N)=O [Peptide 474, ri-amKRAKQDGGWSHWSPWSSCac] (Ac-[dC][dS][dS][dW][dP][dS][dW][dH][dS][dW]GG[dD][dQ][dK][dA][dR][dK]-NH2) | –
12 | – | – | – | – | – | 0.28 | 0.035 | C[C@@H](NC(=O)CCS)C(=O)N[C@H](C)C(=O)N[C@H](CO)C(=O)N[C@H](Cc1c[nH]c2ccccc12)C(=O)N[C@H](Cc1c[nH]cn1)C(=O)N[C@H](CO)C(=O)N[C@H](Cc1c[nH]c2ccccc12)C(=O)NCC(=O)N[C@H](C)C(=O)N[C@H](CCC(N)=O)C(=O)N[C@H](CCCCN)C(=O)N[C@H](C)C(=O)N[C@H](CCCNC(=N)N)C(=O)N[C@H](CCCCN)C(N)=O [Peptide 525, ri-amKRAKQAGWSHWSAAtc] ([Mpa][dA][dA][dS][dW][dH][dS][dW]G[dA][dQ][dK][dA][dR][dK]-NH2) | –
